Assays:
TCC-SUP cells = test: End-point chemosensitivity assay, hematoporphyrin platinum derivatives, dark and irradiated (600–730 nm); assay type: cell-based, human; details: 1 μM concentration; hematoporphyrin-platinum series; bladder cancer cells TCC-SUP
Text: (§1) Data of the cytotoxic effect was obtained, for instance, on the human tumor cell lines TCC-SUP and J82. The effect of the compounds was investigated in the dark and under irradiation with light at a wavelength of 600–730 nm. Selected compounds are clearly more activ cytotoxically under irradiation. There is a synergism between the cytotoxic effect of the platinum component and the photodynamic principle.
(§2) To determine the antiproliferative activity of the new porphyrin ligands and the corresponding platinum complexes with different amine non-leaving groups two bladder cancer cell lines TCC-SUP and J82 were selected as in vitro models.
(§3) To discriminate between the cytotoxic and phototoxic effects all experiments were carried out in duplicate. The cells were seeded into microplates and the test compounds were added after 48 h. One batch of the microplates was kept in the dark until the end of the experiment, whereas the other microplates were irradiated 48 h after addition of the substances for 10 min with a light dose of 24 J·cm^−2, before the plates were reincubated in the dark.
(§4) End-Point Chemosensitivity Assay.
Hematoporphyrin Platinum Derivatives Type.

[1] = system: bladder cancer cell lines TCC-SUP and J82; test: End-point chemosensitivity assay, tetraarylporphyrin platinum derivatives, dark and irradiated (600–730 nm); assay type: cell-based, human; details: 1 μM concentration; tetraarylporphyrin-platinum series
Text: as §1, §2, §3, §4
Tetraarylporphyrin Platinum Derivatives Type.

N.N.[Cl][Pt][Cl] [cisplatin]
T/Ccorr. (TCC-SUP cells): approximately 2%

(+)-trans-1,2-Diaminocyclohexane[2-(4-{10,15,20-tris[4-(1,4,7,10-tetraoxaundecyl)phenyl]porphyrin-5-yl}phenoxy)malonato]platinum(II) [compound 29]
T/Ccorr. [1]: ~57%
